The values below come from ChEMBL document CHEMBL1201862, “PubChem BioAssay data set” (2004).

Holding throughout (experiment): growth of human tumour cells (NCI), 48 h
The subject of assay [1] is A498.
Assay [2] relates to HCT-116.
In assay [3] the test system is HCT-15.
Assay [4] has as its system HL-60.
Assay [5] relates to K562.
Assay [6] relates to NCI-H226.
In assay [7] the test system is OVCAR-3.
Assay [8] has as its system OVCAR-4.
Assay [9] has as its system RXF 393.
Assay [10] concerns SF-268.
The test system of assay [11] is SF-539.
Assay [12] has as its system SN12C.
Assay [13] has as its system SW-620.
Assay [14] concerns TK-10.
The subject of assay [15] is SR.

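The compound was tested at five concentrations on cells cultured in 96-well plates, with a 48-hour exposure period. GI50 is the concentration that inhibits growth by half.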 The source made the active and inactive calls. Rule as the data show it: active = GI50 up to about 1.1 µM and inactive = higher. Bounds are passed on as bounds.

Take `Cc1c(CC/C(=N\Nc2ccc([N+](=O)[O-])cc2[N+](=O)[O-])c2ccccc2)c2ccccc2n1C`: the GI50 in assay [1] was > 100 µM (inactive); in assay [2] it was > 100 µM (inactive); in assay [3], greater than 100 µM; in assay [4], > 50 µM (inactive); in assay [5], 27.4 µM (inactive); in [6], > 100 µM (inactive). In addition, the GI50 in assay [7] was > 100 µM (inactive); in assay [8], > 100 µM (inactive); in assay [9], > 46.1 µM (inactive); in assay [10], > 100 µM (inactive); in [11] it was > 100 µM (inactive); in [12] it was > 100 µM (inactive). Besides, the GI50 in assay [13] and in assay [14] was > 100 µM (inactive) throughout.
For the compound `CCn1c2ccccc2c2c(-c3ccccc3)cc3c(c21)C(=O)N(c1ccccc1)C3=O`, the GI50 in assay [1] was > 100 µM (inactive); in assay [2], 95.5 µM (inactive); in assay [3], greater than 100 µM; in assay [4] it was > 100 µM (inactive); in assay [5], > 100 µM (inactive); in [6], > 100 µM (inactive). The GI50 in [7] is > 100 µM (inactive); in assay [8], > 100 µM (inactive); in [10], 76.6 µM (inactive); in assay [11], > 100 µM (inactive); in assay [12] it was 91 µM (inactive); in assay [15], > 100 µM (inactive). The GI50 in assay [13] and in assay [14] was > 100 µM (inactive) throughout.
Turning to `CCOC(=O)C(=O)Nc1nc2ccc(C)cc2s1`, the GI50 is > 100 µM (inactive) in [1]; > 100 µM (inactive) in assay [2]; greater than 100 µM in [3]; > 100 µM (inactive) in assay [5]; > 100 µM (inactive) in assay [6]; > 100 µM (inactive) in [7]. The GI50 in assay [8] was > 100 µM (inactive); in [10], > 100 µM (inactive); in assay [11], 0.995 µM (active); in assay [12] it was > 100 µM (inactive); in assay [15] it was > 100 µM (inactive); in assay [13], > 100 µM (inactive).
Consider `N#CC(C(=N/NC(N)=S)/C(=N\NC(N)=S)C(C#N)c1ccccc1)c1ccccc1` (stereo not given), for which the GI50 in assay [1] was > 10 µM (inactive); in assay [2], > 10 µM (inactive); in assay [3], greater than 10 µM; in assay [4], > 10 µM (inactive); in [5], > 10 µM (inactive); in assay [6], > 10 µM (inactive). In addition, the GI50 in assay [7], in [8], in [9], in assay [10], in assay [11] and in [12] was > 10 µM (inactive) in each case. In addition, the GI50 in assay [13] and in assay [14] was > 10 µM (inactive) in each case.
With `CC(=O)OCc1c(O)nc2c(c1O)-c1ccccc1CC2`, the GI50 was 58.2 µM (inactive) in assay [2]; 57.5 µM in [3]; 84.7 µM (inactive) in assay [4]; 109 µM (inactive) in assay [5]; > 350 µM (inactive) in assay [6]; 51.5 µM (inactive) in assay [7]. In addition, the GI50 in [9] was 54.6 µM (inactive); in assay [10], 77.1 µM (inactive); in assay [11], 89.1 µM (inactive); in assay [12], 62.2 µM (inactive); in assay [15], 95.1 µM (inactive); in [13], 56.4 µM (inactive). Moreover, the GI50 in assay [14] was 86.9 µM (inactive).
As for `COCC1N=C(c2cc(OC)c(OC)c(OC)c2-c2cc3c(cc2C2OCCCO2)OCO3)O[C@H]1c1ccccc1` (stereo not given in full), the GI50 in [1] is > 100 µM (inactive); in [2] it was > 100 µM (inactive); in assay [3] it was greater than 100 µM; in assay [4] it was > 100 µM (inactive); in assay [5], > 100 µM (inactive); in [6], > 100 µM (inactive). Also, the GI50 in assay [7], in [8], in [9], in assay [10], in [11] and in [12] was > 100 µM (inactive) each time. In addition, the GI50 in assay [13] and in assay [14] was > 100 µM (inactive) in each case.
With `COc1ccc(C(Cc2cc(OC)c(OC)c(OC)c2)C(=O)O)cc1` (stereo not given), the GI50 in assay [1] is 56.5 µM (inactive); in [2] it was 41.5 µM (inactive); in assay [3] it was 43.5 µM; in assay [5] it was 40.4 µM (inactive); in [6], 13.6 µM (inactive); in assay [7] it was 24.3 µM (inactive). For the same compound, the GI50 in [8] was > 100 µM (inactive); in [10] it was 81.8 µM (inactive); in assay [11], 42.6 µM (inactive); in assay [12] it was > 100 µM (inactive); in [13], 46.9 µM (inactive); in assay [14] it was > 100 µM (inactive).
As for `COc1cc(/C=C2\CCc3ccccc3C2=O)cc(OC)c1OC`, the GI50 in assay [2] was 14.1 µM (inactive); in assay [3], 17.3 µM; in assay [4] it was 10.7 µM (inactive); in assay [5] it was 8.43 µM (inactive); in assay [6] it was 18.6 µM (inactive); in assay [7], 15.8 µM (inactive). Further, the GI50 in assay [8] is 23.9 µM (inactive); in assay [9] it was 14.6 µM (inactive); in assay [10], 16.4 µM (inactive); in assay [11], 16.9 µM (inactive); in [12], 18 µM (inactive); in [15], 3.86 µM (inactive). Besides, the values for the GI50 in assay [13] and in assay [14] were 16.6 µM (inactive) and 17.8 µM (inactive), respectively.
On to `O=C(CSc1nnc(Cc2ccccc2)o1)Nc1ccc(Cl)cc1[N+](=O)[O-]`, for which the GI50 in assay [2] is 14 µM (inactive); in assay [3] it was 16.5 µM; in [4], 24.7 µM (inactive); in assay [5] it was 25.6 µM (inactive); in assay [6] it was 21.2 µM (inactive); in assay [8], 18.8 µM (inactive). The GI50 in assay [9] was 19.2 µM (inactive); in assay [10] it was 21.5 µM (inactive); in [12], 17.5 µM (inactive); in assay [15] it was 26.2 µM (inactive); in assay [13], 25.1 µM (inactive); in [14], 17.1 µM (inactive).
With `CCOC(=O)NNC(=O)NC12CC3CC(CC(C3)C1)C2`, the GI50 in assay [1] is > 100 µM (inactive); in assay [2], > 100 µM (inactive); in assay [3], greater than 100 µM; in [5], > 100 µM (inactive); in assay [6], > 100 µM (inactive); in assay [7] it was > 100 µM (inactive). Further, the GI50 in assay [8], in [9], in [10], in [11], in [12] and in [13] was > 100 µM (inactive) throughout. In assay [14], the GI50 is > 100 µM (inactive).
Regarding `CCCCCCCCCCCCCC(=O)NCC(OCC)OCC`, the GI50 was > 100 µM (inactive) in [1]; > 100 µM (inactive) in assay [2]; greater than 100 µM in assay [3]; > 100 µM (inactive) in assay [4]; > 100 µM (inactive) in [6]; > 100 µM (inactive) in assay [7]. Also, the GI50 in assay [8], in assay [9], in [10], in [11], in [12] and in assay [13] was > 100 µM (inactive) each time. Moreover, in [14], the GI50 is > 100 µM (inactive).
